From PubChem BioAssay (NCI)
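Compound exposure: 48 hours, 5 concentrations, 96-well plates. TGI marks complete inhibition of growth.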

Columns and labels:
Assay in all cases: growth of human tumour cells (NCI), 48 h
RXF 393 renal = tested on: RXF 393 renal
786-0 renal = tested on: 786-0 renal
SF-268 CNS = tested on: SF-268 CNS
UO-31 renal = tested on: UO-31 renal
DMS 273 small cell lung = tested on: DMS 273 small cell lung
A498 renal = tested on: A498 renal
SNB-78 CNS = tested on: SNB-78 CNS
HT29 colon = tested on: HT29 colon
IGROV1 ovarian = tested on: IGROV1 ovarian
LXFL 529 NSCLC = tested on: LXFL 529 NSCLC
RXF-631 renal = tested on: RXF-631 renal
UACC-62 melanoma = tested on: UACC-62 melanoma
XF 498 CNS = tested on: XF 498 CNS
HL-60(TB) leukemia = tested on: HL-60(TB) leukemia
SNB-75 CNS = tested on: SNB-75 CNS
SK-OV-3 ovarian = tested on: SK-OV-3 ovarian
M14 melanoma = tested on: M14 melanoma
KM20L2 colon = tested on: KM20L2 colon
SN12C renal = tested on: SN12C renal
EKVX NSCLC = tested on: EKVX NSCLC
NCI-H522 lung = tested on: NCI-H522 lung
MALME-3M melanoma = tested on: MALME-3M melanoma
U251 CNS = tested on: U251 CNS
CCRF-CEM leukemia = tested on: CCRF-CEM leukemia
HCT-116 colon = tested on: HCT-116 colon
HOP-18 NSCLC = tested on: HOP-18 NSCLC
DMS 114 small cell lung = tested on: DMS 114 small cell lung
COLO 205 colon = tested on: COLO 205 colon
NCI-H23 lung = tested on: NCI-H23 lung
M19-MEL melanoma = tested on: M19-MEL melanoma
UACC-257 melanoma = tested on: UACC-257 melanoma
OVCAR-3 ovarian = tested on: OVCAR-3 ovarian
HCC-2998 colon = tested on: HCC-2998 colon
SR leukemia = tested on: SR leukemia
MOLT-4 leukemia = tested on: MOLT-4 leukemia
SNB-19 CNS = tested on: SNB-19 CNS
KM12 colon = tested on: KM12 colon
SF-539 CNS = tested on: SF-539 CNS
LOX IMVI melanoma = tested on: LOX IMVI melanoma
DLD-1 colon = tested on: DLD-1 colon
NCI-H460 lung = tested on: NCI-H460 lung
TK-10 renal = tested on: TK-10 renal
OVCAR-5 ovarian = tested on: OVCAR-5 ovarian
SK-MEL-5 melanoma = tested on: SK-MEL-5 melanoma
ACHN renal = tested on: ACHN renal
SF-295 CNS = tested on: SF-295 CNS
SW-620 colon = tested on: SW-620 colon
OVCAR-8 ovarian = tested on: OVCAR-8 ovarian
SK-MEL-2 melanoma = tested on: SK-MEL-2 melanoma
HCT-15 colon = tested on: HCT-15 colon
HOP-92 NSCLC = tested on: HOP-92 NSCLC
A549 NSCLC = tested on: A549 NSCLC
SK-MEL-28 melanoma = tested on: SK-MEL-28 melanoma
OVCAR-4 ovarian = tested on: OVCAR-4 ovarian
CAKI-1 renal = tested on: CAKI-1 renal
K-562 leukemia = tested on: K-562 leukemia
RPMI-8226 leukemia = tested on: RPMI-8226 leukemia
HOP-62 NSCLC = tested on: HOP-62 NSCLC
NCI-H226 lung = tested on: NCI-H226 lung

With `N#CC1(CCCCl)CCCCC1` the TGI (RXF 393 renal) was over 100 µM, the TGI (786-0 renal) was over 100 µM and the TGI (SF-268 CNS) was over 100 µM. For the same compound, the TGI (UO-31 renal) was over 100 µM, the TGI (DMS 273 small cell lung) was over 100 µM and the TGI (A498 renal) was over 100 µM. The TGI (SNB-78 CNS) was over 100 µM, the TGI (HT29 colon) was over 100 µM and the TGI (IGROV1 ovarian) was over 100 µM. It also gave a TGI (LXFL 529 NSCLC) of over 100 µM, a TGI (RXF-631 renal) of over 100 µM and a TGI (UACC-62 melanoma) of over 100 µM. It also gave a TGI (XF 498 CNS) of over 100 µM, a TGI (HL-60(TB) leukemia) of over 100 µM and a TGI (SNB-75 CNS) of over 100 µM. It also gave a TGI (SK-OV-3 ovarian) of over 100 µM, a TGI (M14 melanoma) of over 100 µM and a TGI (KM20L2 colon) of over 100 µM. It also gave a TGI (SN12C renal) of over 100 µM, a TGI (EKVX NSCLC) of over 100 µM and a TGI (NCI-H522 lung) of over 100 µM. The TGI (MALME-3M melanoma) was over 100 µM, the TGI (U251 CNS) was over 100 µM and the TGI (CCRF-CEM leukemia) was over 100 µM. The TGI (HCT-116 colon) was over 100 µM, the TGI (HOP-18 NSCLC) was over 100 µM and the TGI (DMS 114 small cell lung) was over 100 µM. The TGI (COLO 205 colon) was over 100 µM, the TGI (NCI-H23 lung) was over 100 µM and the TGI (M19-MEL melanoma) was over 100 µM. For the same compound, the TGI (UACC-257 melanoma) was over 100 µM, the TGI (OVCAR-3 ovarian) was over 100 µM and the TGI (HCC-2998 colon) was over 100 µM. The TGI (SR leukemia) was over 100 µM, the TGI (MOLT-4 leukemia) was over 100 µM and the TGI (SNB-19 CNS) was over 100 µM. The TGI (KM12 colon) was over 100 µM, the TGI (SF-539 CNS) was over 100 µM and the TGI (LOX IMVI melanoma) was over 100 µM. The TGI (DLD-1 colon) was over 100 µM, the TGI (NCI-H460 lung) was over 100 µM and the TGI (TK-10 renal) was over 100 µM. For the same compound, the TGI (OVCAR-5 ovarian) was over 100 µM, the TGI (SK-MEL-5 melanoma) was over 100 µM and the TGI (ACHN renal) was over 100 µM. The TGI (SF-295 CNS) was over 100 µM, the TGI (SW-620 colon) was over 100 µM and the TGI (OVCAR-8 ovarian) was over 100 µM. The TGI (SK-MEL-2 melanoma) was over 100 µM, the TGI (HCT-15 colon) was over 100 µM and the TGI (HOP-92 NSCLC) was over 100 µM. It also gave a TGI (A549 NSCLC) of over 100 µM and a TGI (SK-MEL-28 melanoma) of over 100 µM.

With `COC1=CC(=O)C(O)=C(CC2(C)C(C)CCC3(C)C2CCCC3(C)C)C1=O` (stereo not given) the TGI (RXF 393 renal) was 7.79 µM, the TGI (OVCAR-4 ovarian) was over 100 µM and the TGI (786-0 renal) was 19.1 µM. For the same compound, the TGI (SF-268 CNS) was 25.4 µM, the TGI (UO-31 renal) was 17.2 µM and the TGI (DMS 273 small cell lung) was 18.3 µM. The TGI (CAKI-1 renal) was 16.7 µM, the TGI (A498 renal) was 22.1 µM and the TGI (SNB-78 CNS) was over 100 µM. It also gave a TGI (HT29 colon) of 23.1 µM, a TGI (IGROV1 ovarian) of 28.5 µM and a TGI (K-562 leukemia) of over 100 µM. For the same compound, the TGI (LXFL 529 NSCLC) was 22.7 µM, the TGI (RXF-631 renal) was over 100 µM and the TGI (UACC-62 melanoma) was 5.96 µM. For the same compound, the TGI (XF 498 CNS) was 22.4 µM, the TGI (HL-60(TB) leukemia) was 8.53 µM and the TGI (SNB-75 CNS) was 19 µM. The TGI (SK-OV-3 ovarian) was over 100 µM, the TGI (M14 melanoma) was 7.65 µM and the TGI (KM20L2 colon) was 13.2 µM. For the same compound, the TGI (SN12C renal) was 15.3 µM, the TGI (EKVX NSCLC) was 69.7 µM and the TGI (NCI-H522 lung) was 13 µM. It also gave a TGI (MALME-3M melanoma) of 13.4 µM, a TGI (U251 CNS) of 13.8 µM and a TGI (CCRF-CEM leukemia) of 11.5 µM. The TGI (HCT-116 colon) was 21.3 µM, the TGI (HOP-18 NSCLC) was 13 µM and the TGI (DMS 114 small cell lung) was 8.99 µM. It also gave a TGI (COLO 205 colon) of 19.2 µM, a TGI (RPMI-8226 leukemia) of 90.1 µM and a TGI (NCI-H23 lung) of 8.05 µM. For the same compound, the TGI (M19-MEL melanoma) was 7.07 µM, the TGI (UACC-257 melanoma) was 21.9 µM and the TGI (OVCAR-3 ovarian) was 26.5 µM. It also gave a TGI (HCC-2998 colon) of 17.8 µM, a TGI (SR leukemia) of 12.8 µM and a TGI (HOP-62 NSCLC) of 10.7 µM. The TGI (MOLT-4 leukemia) was 18.5 µM, the TGI (SNB-19 CNS) was 19.3 µM and the TGI (NCI-H226 lung) was 9.91 µM. It also gave a TGI (KM12 colon) of 27.3 µM, a TGI (SF-539 CNS) of 9.49 µM and a TGI (LOX IMVI melanoma) of 23.2 µM. It also gave a TGI (DLD-1 colon) of 45.1 µM, a TGI (NCI-H460 lung) of 10.6 µM and a TGI (TK-10 renal) of 37.2 µM. The TGI (OVCAR-5 ovarian) was 21.9 µM, the TGI (SK-MEL-5 melanoma) was 12.2 µM and the TGI (ACHN renal) was 29.5 µM. For the same compound, the TGI (SF-295 CNS) was 16.3 µM, the TGI (SW-620 colon) was 30.5 µM and the TGI (OVCAR-8 ovarian) was 26.2 µM. The TGI (SK-MEL-2 melanoma) was 15.5 µM, the TGI (HCT-15 colon) was 14.8 µM and the TGI (HOP-92 NSCLC) was 7.63 µM. For the same compound, the TGI (A549 NSCLC) was 11.6 µM and the TGI (SK-MEL-28 melanoma) was 18.2 µM.

`CCOc1ccc(OP2(=O)NC(=O)C=C(C)N2)cc1` (stereo not given) gave a TGI (RXF 393 renal) of over 100 µM, a TGI (OVCAR-4 ovarian) of over 100 µM and a TGI (786-0 renal) of over 100 µM. The TGI (SF-268 CNS) was over 100 µM, the TGI (UO-31 renal) was over 100 µM and the TGI (DMS 273 small cell lung) was over 100 µM. It also gave a TGI (CAKI-1 renal) of over 100 µM, a TGI (A498 renal) of over 100 µM and a TGI (SNB-78 CNS) of over 100 µM. It also gave a TGI (HT29 colon) of over 100 µM, a TGI (IGROV1 ovarian) of over 100 µM and a TGI (K-562 leukemia) of over 100 µM. For the same compound, the TGI (LXFL 529 NSCLC) was over 100 µM, the TGI (RXF-631 renal) was over 100 µM and the TGI (UACC-62 melanoma) was over 100 µM. It also gave a TGI (XF 498 CNS) of over 100 µM, a TGI (HL-60(TB) leukemia) of over 100 µM and a TGI (SNB-75 CNS) of over 100 µM. For the same compound, the TGI (SK-OV-3 ovarian) was over 100 µM, the TGI (M14 melanoma) was over 100 µM and the TGI (KM20L2 colon) was over 100 µM. The TGI (SN12C renal) was over 100 µM, the TGI (EKVX NSCLC) was over 100 µM and the TGI (NCI-H522 lung) was over 100 µM. It also gave a TGI (MALME-3M melanoma) of over 100 µM, a TGI (U251 CNS) of over 100 µM and a TGI (CCRF-CEM leukemia) of over 100 µM. The TGI (HCT-116 colon) was over 100 µM, the TGI (HOP-18 NSCLC) was over 100 µM and the TGI (DMS 114 small cell lung) was over 100 µM. For the same compound, the TGI (COLO 205 colon) was over 100 µM, the TGI (RPMI-8226 leukemia) was over 100 µM and the TGI (NCI-H23 lung) was over 100 µM. For the same compound, the TGI (M19-MEL melanoma) was over 100 µM, the TGI (UACC-257 melanoma) was over 100 µM and the TGI (OVCAR-3 ovarian) was over 100 µM. It also gave a TGI (SR leukemia) of over 100 µM, a TGI (HOP-62 NSCLC) of over 100 µM and a TGI (MOLT-4 leukemia) of over 100 µM. For the same compound, the TGI (SNB-19 CNS) was over 100 µM, the TGI (NCI-H226 lung) was over 100 µM and the TGI (KM12 colon) was over 100 µM. For the same compound, the TGI (SF-539 CNS) was over 100 µM, the TGI (LOX IMVI melanoma) was over 100 µM and the TGI (DLD-1 colon) was over 100 µM. It also gave a TGI (NCI-H460 lung) of over 100 µM, a TGI (TK-10 renal) of over 100 µM and a TGI (OVCAR-5 ovarian) of over 100 µM. For the same compound, the TGI (SK-MEL-5 melanoma) was over 100 µM, the TGI (ACHN renal) was over 100 µM and the TGI (SF-295 CNS) was over 100 µM. It also gave a TGI (SW-620 colon) of over 100 µM, a TGI (OVCAR-8 ovarian) of over 100 µM and a TGI (SK-MEL-2 melanoma) of over 100 µM. For the same compound, the TGI (HCT-15 colon) was over 100 µM, the TGI (HOP-92 NSCLC) was over 100 µM and the TGI (A549 NSCLC) was over 100 µM. The TGI (SK-MEL-28 melanoma) was over 100 µM.
